Data on 22 compounds can be found in patent US20250289812A1, “COMPOUND FOR TREATING THROMBOTIC DISEASES” (SHANGHAI INSTITUTE OF MATERIA MEDICA, CHINESE ACADEMY OF …, priority 2020, published 2025).

Test [1] addresses Src kinase SH3 domain protein (Homo sapiens (Human), UniProt P12931). The test is described as follows: Surface plasmon resonance (SPR) determination of dissociation constants with SH3 protein. It counts as binding. To be noted: SH3 protein coupled to CM5 chip. As to the method:
1. Experimental method: Surface plasmon resonance test was carried out on BIACORE T200 instrument (GE Company). Fresh purified grade Src kinase SH3 domain protein (concentration 2 mg/ml) was diluted to 0.1 mg/ml with 10 mM CH3COONa (pH 4.2) and then SH3 protein was coupled to the CM5 chip by standard amino coupling methods. The compounds of the invention were diluted in a gradient using a buffer solution (20 mM Tris-HCl, PH 8.0, 100 mM NaCl) for 60 seconds and dissociated for 120 seconds at a flow rate of […], respectively. The changes in response values over time were recorded and analyzed by the BIA Evaluation Software (GE Healthcare) program to obtain the dissociation constants KD for the different compounds with SH3 protein.
2. Experimental results and conclusions: The dissociation constants KD of different compounds and SH3 protein were described in Table 2, and the surface plasmon resonance (SPR) experimental results of some compounds were shown in FIG. 1.

Test [2] has as its system platelets on solid phase fibrinogen. The test is described as follows: Effect of compound on platelet stretching on solid phase fibrinogen. The format is cell-based. To be noted: 1 h, washed platelets, incubated 60 min at 37° C., read-out: Concentration range for compounds that inhibit platelet stretching on fibrinogen. As to the method: 1. Experimental method: Firstly, 50 μl fibrinogen (0.1M, diluted with pH 8.3 sodium bicarbonate, 20 μg/ml) was added to 96-well plate, and coated overnight at 4° C. After being washed by PBS for 3 times in the morning, sealed with bovine serum albumin (20 mg/ml) at 37° C. for 60 min, then 100 μl of washed platelet suspension was taken, and added into compounds in each group to make the final concentration 250 μM, and incubated at 37° C. for 60 min. 50 μl of incubated platelets were added to 96-well plate, adhered in a temperature box at 37° C. for 60 min, unadhered platelets were removed by PBS washing for 3 times, and adhered platelets were stably fixed with 4% paraformaldehyde, and washed with PBS for 3 times. Then the platelet membrane was perforated with 0.5% Triton X-100, and then the platelet was stained with 0.5 μg/ml phalloidin-rhodamine for 60 min at 37° C. and washed 3 times (10 min each) with PBS.
2. Experimental results and conclusions: The concentration of different compounds on platelet stretching on fibrinogen was shown in Table 3, and the inhibitory effect of some compounds on platelet stretching was shown in FIG. 2.

Bounds are passed on as bounds.

Src kinase SH3 domain protein, sequence (P12931 whole entry, looked up, the tested form may be a part): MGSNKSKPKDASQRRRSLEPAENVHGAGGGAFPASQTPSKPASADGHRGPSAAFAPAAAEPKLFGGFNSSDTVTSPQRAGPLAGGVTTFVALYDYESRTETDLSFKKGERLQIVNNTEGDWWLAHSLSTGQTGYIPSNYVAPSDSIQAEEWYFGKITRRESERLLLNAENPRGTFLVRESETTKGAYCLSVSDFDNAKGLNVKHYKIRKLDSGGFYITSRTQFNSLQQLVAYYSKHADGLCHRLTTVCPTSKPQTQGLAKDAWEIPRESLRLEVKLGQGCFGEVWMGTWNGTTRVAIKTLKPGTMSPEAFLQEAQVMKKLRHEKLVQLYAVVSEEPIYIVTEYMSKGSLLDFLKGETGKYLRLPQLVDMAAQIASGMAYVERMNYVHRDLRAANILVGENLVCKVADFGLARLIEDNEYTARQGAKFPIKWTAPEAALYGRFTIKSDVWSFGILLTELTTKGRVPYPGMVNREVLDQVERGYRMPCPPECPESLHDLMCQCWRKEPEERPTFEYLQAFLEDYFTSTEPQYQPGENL

Regarding `CCOC(=O)c1c(CNC(=N)N)oc2cc(-c3cccc4ccccc34)ccc12` [SYY-C106], the Kd in test [1] was in the range of 1 to 10 µM. Further, in test [2], the minimal effective concentration is 100 to 250 µM.

For the compound `CCOC(=O)c1c(CNC(=N)N)n(C)c2cnccc12` [SYY-C035], in test [1], the Kd fell in the range of 1 to 10 µM. Further, in test [2], the minimal effective concentration fell in the range of 100 to 250 µM.

Compound `CCOC(=O)c1c(CNC(=N)N)n(C)c2cc(OC)c(-c3cccc4ccccc34)cc12` [SYY-C114] returned a Kd in test [1] of 10 to 100 µM. In addition, the minimal effective concentration in test [2] lay within 10 to 100 µM.

In test [1], `Cn1c(CNC(=N)N)c(C(N)=O)c2ccc(-c3cccc4ccccc34)cc21` [SYY-C101] registered a Kd of less than 1 µM. Further, in test [2], the minimal effective concentration was 10 to 100 µM.

In test [1], `CCOC(=O)c1c(CNC(=N)N)n(C)c2cc(OC3CCCC3)ccc12` [SYY-C054] returned a dissociation constant (Kd) of less than 1 µM. Also, in test [2], the minimal effective concentration was 10 to 100 µM.

`CCOC(=O)c1c(CNC(=N)N)n(C)c2c1ccc1ccccc12` [SYY-C029] had a Kd in test [1] of less than 1 µM. The minimal effective concentration in test [2] was in the range of 10 to 100 µM.

Compound `CCOC(=O)c1c(CNC(=N)N)n(C)c2cc(-c3cccc4cnccc34)ccc12` [SYY-C074] showed a Kd in test [1] of 10 to 100 µM. Also, the minimal effective concentration in test [2] is 10 to 100 µM.

Regarding `CCOC(=O)c1c(CNC(=N)N)n(C)c2cc(-c3cccc4ccccc34)c(C3CC3)cc12` [SYY-C112], in test [1], the dissociation constant (Kd) was less than 1 µM. Moreover, in test [2], the minimal effective concentration lay within 10 to 100 µM.

`CCOC(=O)c1c(CNC(=N)N)n(C)c2cc(C3CCCC3)ccc12` [SYY-C025]: the Kd in test [1] was less than 1 µM. For the same compound, in test [2], the minimal effective concentration was 10 to 100 µM.

With `CCNC(=N)NCc1c(C(=O)OCC)c2nc(OC)ccc2n1C` [SYY-C032], the Kd in test [1] is less than 1 µM. Moreover, in test [2], the minimal effective concentration fell in the range of 10 to 100 µM.

As to `CCOC(=O)c1c(CSC(=N)N)n(C)c2cc(OC3CCCCC3)ccc12` [SYY-C061], the dissociation constant (Kd) in test [1] fell in the range of 10 to 100 µM. The minimal effective concentration in test [2] is 10 to 100 µM.

Turning to `CCOC(=O)c1c(CSC(=N)N)n(C)c2cc(OC3CCCC3)ccc12` [SYY-C058], in test [1], the Kd is 10 to 100 µM. In test [2], the minimal effective concentration was 100 to 250 µM.

In the case of `COc1ccc2c(n1)c(C(N)=O)c(CNC(=N)N)n2C` [SYY-C005], the Kd in test [1] lay in the range of 1 to 10 µM. In addition, the minimal effective concentration in test [2] fell in the range of 100 to 250 µM.

On to `CC(=O)Nc1c(CNC(=N)N)n(C)c2cc(-c3cccc4ccccc34)ccc12` [SYY-C105], for which the Kd in test [1] is less than 1 µM. For the same compound, in test [2], the minimal effective concentration lay in the range of 10 to 100 µM.

The compound `CCOC(=O)c1c(CNC(=N)N)n(C)c2cc(-c3cccc4c(Cl)cccc34)ccc12` [SYY-C084] gave a Kd in test [1] of less than 1 µM. In addition, the minimal effective concentration in test [2] was 10 to 100 µM.

The compound `CCOC(=O)c1c(CNC(=N)N)sc2ccc(-c3cccc4ccccc34)cc12` [SYY-C107] displayed a Kd in test [1] of less than 1 µM. The minimal effective concentration in test [2] lay within 10 to 100 µM.

`CCOC(=O)c1c(CNC(=N)N)n(C)c2cc(-c3cccc4ccccc34)ccc12` [SYY-C040] yielded a Kd in test [1] of less than 1 µM. Also, the minimal effective concentration in test [2] is 10 to 100 µM.

Turning to `CCOC(=O)c1c(CSC(=N)N)n(C)c2cc(C3=CCCCCC3)ccc12` [SYY-C052], the equilibrium dissociation constant (Kd) in test [1] fell in the range of 1 to 10 µM. The minimal effective concentration in test [2] lay within 100 to 250 µM.

As for `CCOC(=O)c1c(CNC(=N)N)sc2cc(-c3cccc4ccccc34)c(Oc3ccccc3)cc12` [SYY-C128], the Kd in test [1] is 10 to 100 µM. Besides, the minimal effective concentration in test [2] is 100 to 250 µM.

As for `CCOC(=O)c1c(CNC(=N)N)n(C)c2ccc(C3CCCC3)cc12` [SYY-C039], in test [1], the dissociation constant Kd was less than 1 µM. Further, the minimal effective concentration in test [2] lay within 10 to 100 µM.

As for `CCOC(=O)c1c(CNC(=N)N)n(C)c2cc(-c3cccc4ccc(C)cc34)ccc12` [SYY-C087], in test [1], the equilibrium dissociation constant (Kd) lay within 10 to 100 µM. For the same compound, the minimal effective concentration in test [2] was 100 to 250 µM.

With `CCOC(=O)c1c(CNC(=N)N)n(C)c2cc(-c3cccc4cccc(C)c34)ccc12` [SYY-C091], the Kd in test [1] is less than 1 µM. For the same compound, the minimal effective concentration in test [2] is 10 to 100 µM.
